The source of these data is PMC5622936, “Novel Carbonyl Analogs of Tamoxifen: Design, Synthesis, and Biological Evaluation” (Frontiers in Chemistry, 2017).

One assay deals with T1, ERβ (Homo sapiens, UniProt Q92731).
T1 construct: gene ESR2; isolated recombinant human ERβ (Invitrogen)
Put plainly: fluorescence polarization competition, displacement of fluorescent estrogen ES2 (Beacon […]). The assay is classed as binding. To be noted: 1 nM ES2 tracer, relative to estradiol = 100.

The next assay deals with T2, ERα (Homo sapiens, UniProt P03372).
T2 construct: gene ESR1; isolated recombinant human ERα (Invitrogen)
T2 sequence (P03372 1-595): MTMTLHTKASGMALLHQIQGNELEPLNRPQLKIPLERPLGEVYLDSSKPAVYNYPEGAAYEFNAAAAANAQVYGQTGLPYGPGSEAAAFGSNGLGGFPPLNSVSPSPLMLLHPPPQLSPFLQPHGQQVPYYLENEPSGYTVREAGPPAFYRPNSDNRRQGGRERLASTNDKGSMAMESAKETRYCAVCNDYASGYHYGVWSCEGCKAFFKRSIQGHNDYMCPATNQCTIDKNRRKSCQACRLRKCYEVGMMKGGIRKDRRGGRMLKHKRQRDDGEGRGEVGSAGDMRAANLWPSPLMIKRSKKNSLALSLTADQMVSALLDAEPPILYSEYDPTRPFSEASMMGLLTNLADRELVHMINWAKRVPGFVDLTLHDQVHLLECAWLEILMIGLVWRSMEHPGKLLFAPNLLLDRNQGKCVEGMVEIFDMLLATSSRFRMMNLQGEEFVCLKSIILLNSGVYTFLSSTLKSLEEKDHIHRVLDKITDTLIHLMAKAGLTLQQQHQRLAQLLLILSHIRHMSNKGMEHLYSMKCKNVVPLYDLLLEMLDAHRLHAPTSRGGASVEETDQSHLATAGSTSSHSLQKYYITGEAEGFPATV
The description is as above. To be noted: 1 nM ES2 tracer, relative to estradiol = 100. The assay is classed as binding.

T1 sequence (Q92731 whole entry): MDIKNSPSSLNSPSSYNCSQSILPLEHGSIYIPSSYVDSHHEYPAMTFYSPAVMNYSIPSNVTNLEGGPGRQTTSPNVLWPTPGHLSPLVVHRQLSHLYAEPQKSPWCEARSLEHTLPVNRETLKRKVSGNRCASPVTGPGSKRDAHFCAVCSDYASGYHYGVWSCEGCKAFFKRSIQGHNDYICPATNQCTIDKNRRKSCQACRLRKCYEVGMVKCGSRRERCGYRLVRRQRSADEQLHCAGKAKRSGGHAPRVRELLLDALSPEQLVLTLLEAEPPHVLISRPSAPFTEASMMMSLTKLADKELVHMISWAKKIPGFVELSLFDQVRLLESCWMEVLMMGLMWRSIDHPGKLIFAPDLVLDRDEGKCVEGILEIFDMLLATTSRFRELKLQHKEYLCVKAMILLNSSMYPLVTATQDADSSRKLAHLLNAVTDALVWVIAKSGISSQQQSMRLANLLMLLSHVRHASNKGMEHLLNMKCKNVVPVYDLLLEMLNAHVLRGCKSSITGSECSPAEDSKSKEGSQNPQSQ

`CC/C(=C(\c1ccc(O)cc1)c1ccc(C(=O)NCCBr)cc1)c1ccc(O)cc1` [compound 13, (E)-4-[1,2-bis-(4-hydroxy-phenyl)-but-1-enyl]-n-(2-bromo-ethyl)-benzamide]: the “RBAβ^a” value at ERβ is 8.40 ± 2.5. For the same compound, the “RBAα^a” value on ERα is recorded as 17.4 ± 3.0.
The like results for `CC/C(=C(\c1ccc(O)cc1)c1ccc(C(=O)NCCCBr)cc1)c1ccc(O)cc1` [compound 14, (E)-4-[1,2-bis-(4-hydroxy-phenyl)-but-1-enyl]-n-(3-bromo-propyl)-benzamide] were, in that order, 6.15 ± 0.6 and 7.94 ± 0.6.
As to `CCC(=C(c1ccc(O)cc1)c1ccc(C(=O)O)cc1)c1ccc(O)cc1` (mixture of isomers) [compound 10, 4-[1,2-bis-(4-hydroxy-phenyl)-but-1-enyl]-benzoic acid], the “RBAβ^a” value at ERβ (E/Z isomer tested not stated) was found to be 16.3 ± 3.9. In addition, the “RBAα^a” value at ERα (E/Z isomer tested not stated) is listed as 12.2 ± 2.3.
On to `CC/C(=C(\c1ccc(O)cc1)c1ccc(OC(=O)CBr)cc1)c1ccc(O)cc1` [6b, Z-Bromo-acetic acid 4-[1,2 bis-(4-hydroxy-phenyl)-but-1-enyl]-phenyl ester], for which, on ERβ, the “RBAβ^a” value is on record as 82.39 ± 4.9. On ERα, the “RBAα^a” value is listed as 96.37 ± 7.2.
The like results for `CC/C(=C(\c1ccc(O)cc1)c1ccc(OC(=O)CCl)cc1)c1ccc(O)cc1` [6a, Z-Chloro-acetic acid 4-[1,2 bis-(4-hydroxy-phenyl)-but-1-enyl]-phenyl ester] were, in that order, 62.14 ± 4.3 and 120.08 ± 8.5.
The like results for `CC/C(=C(\c1ccc(O)cc1)c1ccc(OC(=O)CN(C)C)cc1)c1ccc(O)cc1` [8a, Z-Dimethylamino-acetic acid 4-[1,2-bis-(4-hydroxy-phenyl)-but-1-enyl]-phenyl ester] were, in that order, 72.72 ± 2.1 and 101.35 ± 10.2.
The like results for `CC/C(=C(\c1ccc(O)cc1)c1ccc(OC(=O)CN(CC)CC)cc1)c1ccc(O)cc1` [8b, Z-Diethylamino-acetic acid 4-[1,2-bis-(4-hydroxy-phenyl)-but-1-enyl]-phenyl ester] were, in that order, 77.37 ± 4.5 and 108.12 ± 11.9.
For the compound `CC/C(=C(\c1ccc(O)cc1)c1ccc(OC(=O)CN2CCOCC2)cc1)c1ccc(O)cc1` [8c, Z-Morpholin-4-yl-acetic acid 4-[1,2-bis-(4-hydroxy-phenyl)-but-1-enyl]-phenyl ester], the “RBAβ^a” value at ERβ was found to be 16.79 ± 1.4. In addition, the “RBAα^a” value on ERα is reported as 8.06 ± 0.9.
